# Results taken from ChEMBL document CHEMBL1201862, “PubChem BioAssay data set” (2004).
# The source made the active and inactive calls.
# Assays:
# [1] = Counterscreen for IDE inhibitors: Luminescence-based cell-based high throughput dose response assay to identify compounds that are cytotoxic to HEK cells. [Related pubchem assays: 434962 (Primary screen (IDE inhibitors in singlicate)), 449730 (Counterscreen (Cytotoxicity in triplicate)), 435028 (Confirmation (IDE inhibitors in triplicate)) …; format: functional; settings: HEK293
# Insulin-degrading enzyme = target: T1, Insulin-degrading enzyme (Homo sapiens, UniProt P14735); assay: Dose Response: Fluorescence polarization-based cell-based high throughput dose response assay for inhibitors of insulin-degrading enzyme (IDE). [Related pubchem assays: 434962 (Primary screen (IDE inhibitors in singlicate)), 449730 (Counterscreen (Cytotoxicity in triplicate)), 435028 (Confirmation (IDE inhibitors in triplicate)), 434984 (Summary …; format: functional
# T1 sequence (P14735 whole entry): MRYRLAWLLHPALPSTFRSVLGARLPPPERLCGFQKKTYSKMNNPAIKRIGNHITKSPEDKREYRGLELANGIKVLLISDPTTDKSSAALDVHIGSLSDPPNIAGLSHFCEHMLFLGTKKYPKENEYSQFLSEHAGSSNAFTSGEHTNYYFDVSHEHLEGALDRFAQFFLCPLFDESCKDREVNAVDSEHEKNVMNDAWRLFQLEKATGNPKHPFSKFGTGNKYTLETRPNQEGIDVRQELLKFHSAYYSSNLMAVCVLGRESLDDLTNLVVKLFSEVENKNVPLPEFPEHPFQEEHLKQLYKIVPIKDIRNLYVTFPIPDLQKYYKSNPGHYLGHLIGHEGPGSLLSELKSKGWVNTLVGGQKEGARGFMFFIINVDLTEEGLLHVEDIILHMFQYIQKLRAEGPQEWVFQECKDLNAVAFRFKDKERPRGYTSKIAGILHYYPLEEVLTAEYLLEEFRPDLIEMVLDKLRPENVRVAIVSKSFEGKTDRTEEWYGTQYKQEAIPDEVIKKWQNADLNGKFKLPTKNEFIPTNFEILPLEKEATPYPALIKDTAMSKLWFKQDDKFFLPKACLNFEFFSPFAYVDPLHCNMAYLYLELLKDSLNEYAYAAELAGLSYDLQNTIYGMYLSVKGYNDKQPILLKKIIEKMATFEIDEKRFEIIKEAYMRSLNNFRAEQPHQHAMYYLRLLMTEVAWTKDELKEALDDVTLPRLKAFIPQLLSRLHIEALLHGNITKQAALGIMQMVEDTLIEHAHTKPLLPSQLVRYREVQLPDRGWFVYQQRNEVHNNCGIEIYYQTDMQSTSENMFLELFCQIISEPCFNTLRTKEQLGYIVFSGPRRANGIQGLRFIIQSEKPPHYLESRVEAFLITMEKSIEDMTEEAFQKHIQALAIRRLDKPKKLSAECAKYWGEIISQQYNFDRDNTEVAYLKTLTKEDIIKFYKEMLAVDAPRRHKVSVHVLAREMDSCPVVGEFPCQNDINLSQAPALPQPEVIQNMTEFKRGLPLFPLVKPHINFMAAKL
# cells [2] = format: functional, cell-based
# cells [3] = format: functional, cell-based; remark: listed apart in the source
# [4] = target: DNA dC->dU-editing enzyme APOBEC-3A (Homo sapiens, UniProt P31941); assay: A3A deaminase inhibition for selectivity – biochemical, dose response (AID 504722); format: functional
# [5] = target: DNA dC->dU-editing enzyme APOBEC-3G (Homo sapiens, UniProt Q9HC16); assay: Dose Response confirmation of small molecule APOBEC3G DNA Deaminase Inhibitors via a fluorescence-based single-stranded DNA deaminase assay. [Related pubchem assays (depositor defined):AID493012, AID493028]; format: functional
# [6] = target: G-protein coupled receptor 35 (Homo sapiens, UniProt Q9HC97); assay: inhibition of zaprinast-stimulated GPR35 beta-arrestin translocation – imaging, U2OS, beta-arrestin-GFP, zaprinast agonist, primary screen (AID 2058); format: functional;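 further: antagonist potency meaning inhibition of agonist-induced arrestin redistribution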
# [7] = target: Heat shock protein HSP 90-alpha (Homo sapiens, UniProt P07900); format: functional, organism-based
# [8] = target: Peroxisome proliferator-activated receptor gamma/Nuclear receptor coactivator 1 (Homo sapiens, UniProt P37231); format: functional;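 further: agonist potency as compounds enhance coactivator SRC-1 recruitment to PPARgamma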
# [9] = target: Peroxisome proliferator-activated receptor gamma/Nuclear receptor coactivator 2 (Homo sapiens, UniProt P37231); format: functional;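 further: agonist potency for raising coactivator recruitment to the receptor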
# [10] = target: Peroxisome proliferator-activated receptor gamma/Nuclear receptor coactivator 3 (Homo sapiens, UniProt P37231); format: functional;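 further: agonist potency for raising coactivator recruitment to the receptor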
# [11] = target: T2, Lysosomal acid glucosylceramidase (Homo sapiens, UniProt P04062); assay: Dose response cell-based high throughput screening assay to identify enhancers of beta-glucosidase activity. [Related pubchem assays: 784 ]; format: functional
# T2 sequence (P04062 whole entry): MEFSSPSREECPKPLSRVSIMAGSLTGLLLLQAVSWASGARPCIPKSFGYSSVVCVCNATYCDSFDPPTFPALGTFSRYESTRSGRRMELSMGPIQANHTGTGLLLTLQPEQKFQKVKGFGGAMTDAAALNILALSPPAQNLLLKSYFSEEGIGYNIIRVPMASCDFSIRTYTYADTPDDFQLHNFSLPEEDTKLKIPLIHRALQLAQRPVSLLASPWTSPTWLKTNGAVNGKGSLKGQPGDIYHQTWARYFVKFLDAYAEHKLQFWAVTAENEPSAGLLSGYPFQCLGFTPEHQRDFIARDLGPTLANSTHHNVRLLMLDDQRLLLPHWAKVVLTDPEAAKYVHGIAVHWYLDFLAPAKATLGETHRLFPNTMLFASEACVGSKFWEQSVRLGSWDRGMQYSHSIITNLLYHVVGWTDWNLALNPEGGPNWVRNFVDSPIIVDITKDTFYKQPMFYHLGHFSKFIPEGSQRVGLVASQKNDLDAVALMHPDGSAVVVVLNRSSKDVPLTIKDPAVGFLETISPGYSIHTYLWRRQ
# Streptococcus = assay: GAS UMAA2166 growth inhibition – luminescence, BacTiterGlo, counter-screen for streptokinase expression inhibitor project, dose response (AID 1915); format: functional, organism-based;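 further: potency for reduction of bacterial viability or growth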
# Streptokinase A = target: T3, Streptokinase A (Streptococcus pyogenes serotype M1, UniProt P10520); assay: viability-normalized secreted streptokinase activity reduction – plasminogen activation absorbance, OD405, dose response (AID 1914); format: functional, Streptococcus pyogenes M1 GAS;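 further: secreted streptokinase activity via plasminogen activation per viability signal from cell pellet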
# T3 sequence (P10520 whole entry): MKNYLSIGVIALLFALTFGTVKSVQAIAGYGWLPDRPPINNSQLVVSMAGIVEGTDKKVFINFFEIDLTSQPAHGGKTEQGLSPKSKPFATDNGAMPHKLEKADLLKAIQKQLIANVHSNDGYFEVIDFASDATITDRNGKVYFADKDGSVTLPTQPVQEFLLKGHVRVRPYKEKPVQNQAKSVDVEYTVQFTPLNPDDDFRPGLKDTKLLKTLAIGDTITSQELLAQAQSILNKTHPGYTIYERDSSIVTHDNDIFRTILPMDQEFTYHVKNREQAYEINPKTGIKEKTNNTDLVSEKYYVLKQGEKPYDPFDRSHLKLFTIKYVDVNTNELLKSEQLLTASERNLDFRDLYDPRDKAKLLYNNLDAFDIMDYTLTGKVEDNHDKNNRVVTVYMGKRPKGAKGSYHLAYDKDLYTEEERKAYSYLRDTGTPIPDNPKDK
# [12] = Luminescence Cell-Based Dose Retest to Confirm Inhibitors of Cancer Stem Cells. [Related pubchem assays (depositor defined):AID2717, AID2721]; format: functional; settings: Homo sapiens
# [13] = tested on: Streptococcus sp. 'group A'; assay: Streptococcus pyogenes SK(-)GAS viability under kanamycin – luminescence, BacTiterGlo, confirmation, counter-screen for streptokinase expression inhibitor project, dose response (AID 1900); format: functional, organism-based
# [14] = A Cell Based Secondary Assay To Explore Cytotoxicity of Compounds that Sensitize Mycobacterium Tuberculosis to Beta-Lactam Antibiotics.; format: functional
# [15] = HPDE-C7 pancreatic duct cell viability loss – fluorescence, HTS (AID 430); format: functional, cell-based; settings: Homo sapiens
# [16] = viability loss of HPDE-C7K cells – cell-based, fluorescence, HTS, primary screen (AID 431); format: functional; settings: Homo sapiens
# [17] = target: T4, Acyl-homoserine lactone acylase PvdQ (Pseudomonas aeruginosa (strain LESB58), UniProt Q9I194); assay: PvdQ acylase enzyme activity blockers – biochemical, fluorescence, plate reader and imaging, cherry-picks, dose response (AID 493231)
# T4 sequence (Q9I194 whole entry): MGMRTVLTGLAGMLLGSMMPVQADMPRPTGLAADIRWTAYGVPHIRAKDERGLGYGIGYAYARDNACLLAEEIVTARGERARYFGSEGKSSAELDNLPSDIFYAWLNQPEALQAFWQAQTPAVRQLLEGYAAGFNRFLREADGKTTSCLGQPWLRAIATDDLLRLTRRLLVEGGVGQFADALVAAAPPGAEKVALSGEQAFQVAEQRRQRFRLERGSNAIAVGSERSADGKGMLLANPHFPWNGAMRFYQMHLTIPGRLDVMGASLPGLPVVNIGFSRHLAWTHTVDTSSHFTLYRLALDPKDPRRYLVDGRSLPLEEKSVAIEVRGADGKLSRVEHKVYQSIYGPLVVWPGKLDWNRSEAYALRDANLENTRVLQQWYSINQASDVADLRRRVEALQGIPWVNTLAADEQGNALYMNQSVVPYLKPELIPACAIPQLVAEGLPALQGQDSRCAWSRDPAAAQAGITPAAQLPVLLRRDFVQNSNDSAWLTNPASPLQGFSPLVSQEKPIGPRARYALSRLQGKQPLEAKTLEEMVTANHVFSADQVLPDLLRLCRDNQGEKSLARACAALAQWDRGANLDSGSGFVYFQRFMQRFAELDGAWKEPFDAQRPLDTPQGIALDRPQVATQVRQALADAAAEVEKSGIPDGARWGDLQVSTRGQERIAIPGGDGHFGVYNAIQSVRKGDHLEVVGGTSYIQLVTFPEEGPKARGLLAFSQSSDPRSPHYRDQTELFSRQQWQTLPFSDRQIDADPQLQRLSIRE
# Cytochrome P450 2C19 = Cytochrome P450 2C19 (Homo sapiens, UniProt P33261); assay: Cytochrome panel assay with activity outcomes. Panel member name: p450-cyp2c19 Compounds with AC50 equal or less than 10 uM are considered active; format: functional; settings: read-out: AC50
# Cytochrome P450 2C9 = Cytochrome P450 2C9 (Homo sapiens, UniProt P11712)
# [18] = viability of PTEN-deleted HCT116 cells – cell-based, HCT116 PTEN knockout, dose response (AID 1047); format: functional;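 further: HCT116 colon tumor cells with PTEN knocked out; cells exposed to compound for 60 hours before readout; potency for loss of cell viability measured by luminescence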
# [19] = viability of HCT116 lacking mutant beta-catenin – cell-based, human colon tumor, dose response (AID 1045); format: functional;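 further: HCT116 colon tumor cells with beta catenin knocked out; cells exposed to compound for 60 hours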
# [20] = M. tuberculosis H37Rv growth inhibitors, H37Rv strain (AID 1626); format: functional
# Melanocortin receptor 4 = Melanocortin receptor 4 (Homo sapiens, UniProt P32245); format: functional, cell-based;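 further: Cell-based assay with luminescence read-out, confirmatory dose-response testing for agonist activity of biased ligands at MC4R; human U2OS cells with tagged receptor and beta-arrestin; potency of agonists that increase receptor coupling to beta-arrestin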
# Melanocortin receptor 4, sequence (P32245 whole entry): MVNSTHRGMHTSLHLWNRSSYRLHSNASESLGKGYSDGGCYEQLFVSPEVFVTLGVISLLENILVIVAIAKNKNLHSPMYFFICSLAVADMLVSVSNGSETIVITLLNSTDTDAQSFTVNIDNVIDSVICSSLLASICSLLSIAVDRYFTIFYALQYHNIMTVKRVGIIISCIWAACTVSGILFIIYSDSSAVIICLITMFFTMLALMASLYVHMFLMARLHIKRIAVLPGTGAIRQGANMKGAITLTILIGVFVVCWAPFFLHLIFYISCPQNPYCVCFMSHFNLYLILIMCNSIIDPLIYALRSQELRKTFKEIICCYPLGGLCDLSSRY
# Peroxisome proliferator-activated receptor gamma/Nuclear receptor coactivator 3, sequence (P37231 whole entry): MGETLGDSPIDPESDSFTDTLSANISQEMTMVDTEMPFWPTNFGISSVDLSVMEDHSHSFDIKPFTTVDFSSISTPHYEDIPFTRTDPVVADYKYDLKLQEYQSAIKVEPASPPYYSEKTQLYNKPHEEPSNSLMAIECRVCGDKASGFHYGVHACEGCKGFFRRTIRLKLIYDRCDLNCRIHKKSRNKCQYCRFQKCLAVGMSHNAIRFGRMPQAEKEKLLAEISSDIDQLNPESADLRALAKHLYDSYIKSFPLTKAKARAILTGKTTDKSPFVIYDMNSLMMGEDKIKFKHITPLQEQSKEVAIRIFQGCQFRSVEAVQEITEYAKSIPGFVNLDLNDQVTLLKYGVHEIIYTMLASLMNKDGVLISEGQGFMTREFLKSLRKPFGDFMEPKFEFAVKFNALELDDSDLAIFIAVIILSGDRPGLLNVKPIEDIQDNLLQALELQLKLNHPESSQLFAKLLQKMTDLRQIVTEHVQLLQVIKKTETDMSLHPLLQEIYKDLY
# Peroxisome proliferator-activated receptor gamma/Nuclear receptor coactivator 3, sequence (Q9Y6Q9 whole entry, further chain): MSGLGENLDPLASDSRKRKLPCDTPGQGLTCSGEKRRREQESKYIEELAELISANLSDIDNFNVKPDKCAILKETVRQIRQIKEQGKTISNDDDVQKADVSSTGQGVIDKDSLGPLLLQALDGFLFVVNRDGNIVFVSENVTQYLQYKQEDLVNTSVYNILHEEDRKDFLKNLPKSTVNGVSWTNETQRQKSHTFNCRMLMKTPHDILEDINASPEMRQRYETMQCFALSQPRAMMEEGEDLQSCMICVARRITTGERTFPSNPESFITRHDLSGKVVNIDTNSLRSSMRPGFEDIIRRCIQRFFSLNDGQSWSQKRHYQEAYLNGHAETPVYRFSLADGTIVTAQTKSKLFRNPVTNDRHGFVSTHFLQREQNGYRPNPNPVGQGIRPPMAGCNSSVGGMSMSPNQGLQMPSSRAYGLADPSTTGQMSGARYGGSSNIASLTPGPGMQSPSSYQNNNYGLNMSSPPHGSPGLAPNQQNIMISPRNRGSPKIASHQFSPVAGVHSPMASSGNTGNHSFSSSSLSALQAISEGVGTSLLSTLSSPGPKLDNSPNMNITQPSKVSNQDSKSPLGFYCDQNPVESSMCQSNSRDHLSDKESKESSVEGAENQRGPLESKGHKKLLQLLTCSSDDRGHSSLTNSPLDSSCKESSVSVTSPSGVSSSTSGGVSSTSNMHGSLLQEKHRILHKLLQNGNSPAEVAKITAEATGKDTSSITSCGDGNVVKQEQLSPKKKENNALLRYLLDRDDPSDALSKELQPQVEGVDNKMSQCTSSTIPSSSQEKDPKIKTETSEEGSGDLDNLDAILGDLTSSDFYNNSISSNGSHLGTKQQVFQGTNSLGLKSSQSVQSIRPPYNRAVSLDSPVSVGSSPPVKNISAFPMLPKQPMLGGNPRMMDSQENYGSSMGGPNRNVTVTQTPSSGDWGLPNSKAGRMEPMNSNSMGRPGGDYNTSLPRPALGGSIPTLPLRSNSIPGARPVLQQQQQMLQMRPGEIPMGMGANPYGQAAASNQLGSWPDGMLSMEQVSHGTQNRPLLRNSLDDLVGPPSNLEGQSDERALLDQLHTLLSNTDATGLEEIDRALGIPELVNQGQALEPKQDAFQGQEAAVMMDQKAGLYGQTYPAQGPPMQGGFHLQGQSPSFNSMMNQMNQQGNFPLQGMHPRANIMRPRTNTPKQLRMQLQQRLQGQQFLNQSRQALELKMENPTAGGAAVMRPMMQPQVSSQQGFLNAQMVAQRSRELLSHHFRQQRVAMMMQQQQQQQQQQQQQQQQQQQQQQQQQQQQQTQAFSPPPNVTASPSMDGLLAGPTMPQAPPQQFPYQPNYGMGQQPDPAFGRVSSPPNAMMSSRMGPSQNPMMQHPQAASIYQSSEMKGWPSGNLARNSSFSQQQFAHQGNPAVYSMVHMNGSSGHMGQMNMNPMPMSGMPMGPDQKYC
# Peroxisome proliferator-activated receptor gamma/Nuclear receptor coactivator 2, sequence (P37231 whole entry): as the sequence (P37231 whole entry) above
# Peroxisome proliferator-activated receptor gamma/Nuclear receptor coactivator 2, sequence (Q15596 whole entry, further chain): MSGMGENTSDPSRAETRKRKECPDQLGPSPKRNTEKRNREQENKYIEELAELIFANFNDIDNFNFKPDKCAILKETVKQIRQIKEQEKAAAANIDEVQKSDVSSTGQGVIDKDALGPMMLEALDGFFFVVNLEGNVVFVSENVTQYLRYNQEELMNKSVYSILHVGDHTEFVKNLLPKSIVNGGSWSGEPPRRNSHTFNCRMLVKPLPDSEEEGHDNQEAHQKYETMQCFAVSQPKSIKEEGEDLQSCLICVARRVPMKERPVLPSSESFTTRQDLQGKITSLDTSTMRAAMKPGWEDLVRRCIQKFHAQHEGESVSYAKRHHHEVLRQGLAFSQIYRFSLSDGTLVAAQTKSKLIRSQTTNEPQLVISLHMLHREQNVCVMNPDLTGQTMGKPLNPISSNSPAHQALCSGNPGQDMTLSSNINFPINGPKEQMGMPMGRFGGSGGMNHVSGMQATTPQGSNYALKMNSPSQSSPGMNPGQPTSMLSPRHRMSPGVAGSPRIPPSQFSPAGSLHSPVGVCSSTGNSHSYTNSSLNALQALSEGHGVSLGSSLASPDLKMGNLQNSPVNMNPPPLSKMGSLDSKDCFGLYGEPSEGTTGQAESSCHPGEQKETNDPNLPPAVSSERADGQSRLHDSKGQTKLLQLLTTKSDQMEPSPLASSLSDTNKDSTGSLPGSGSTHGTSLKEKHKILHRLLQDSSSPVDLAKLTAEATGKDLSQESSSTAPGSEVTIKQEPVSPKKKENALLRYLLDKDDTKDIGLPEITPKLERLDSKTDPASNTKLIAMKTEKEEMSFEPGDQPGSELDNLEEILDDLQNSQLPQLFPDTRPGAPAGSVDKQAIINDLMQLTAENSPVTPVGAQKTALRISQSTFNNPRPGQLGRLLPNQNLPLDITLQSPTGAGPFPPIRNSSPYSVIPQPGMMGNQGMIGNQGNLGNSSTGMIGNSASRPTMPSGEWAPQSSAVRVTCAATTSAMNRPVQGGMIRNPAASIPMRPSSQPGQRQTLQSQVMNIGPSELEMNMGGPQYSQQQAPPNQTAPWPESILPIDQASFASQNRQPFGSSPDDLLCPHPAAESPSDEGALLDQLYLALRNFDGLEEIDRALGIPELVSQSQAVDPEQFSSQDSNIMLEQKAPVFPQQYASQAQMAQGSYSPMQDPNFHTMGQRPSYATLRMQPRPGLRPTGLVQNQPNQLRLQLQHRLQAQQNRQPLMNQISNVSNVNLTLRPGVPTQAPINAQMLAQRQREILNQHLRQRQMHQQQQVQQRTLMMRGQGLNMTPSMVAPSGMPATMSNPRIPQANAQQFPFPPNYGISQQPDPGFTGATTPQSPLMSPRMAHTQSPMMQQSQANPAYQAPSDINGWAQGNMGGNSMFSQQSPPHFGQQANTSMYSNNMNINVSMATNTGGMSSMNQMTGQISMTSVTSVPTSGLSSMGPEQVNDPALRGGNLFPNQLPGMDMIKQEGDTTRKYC
# G-protein coupled receptor 35, sequence (Q9HC97 whole entry): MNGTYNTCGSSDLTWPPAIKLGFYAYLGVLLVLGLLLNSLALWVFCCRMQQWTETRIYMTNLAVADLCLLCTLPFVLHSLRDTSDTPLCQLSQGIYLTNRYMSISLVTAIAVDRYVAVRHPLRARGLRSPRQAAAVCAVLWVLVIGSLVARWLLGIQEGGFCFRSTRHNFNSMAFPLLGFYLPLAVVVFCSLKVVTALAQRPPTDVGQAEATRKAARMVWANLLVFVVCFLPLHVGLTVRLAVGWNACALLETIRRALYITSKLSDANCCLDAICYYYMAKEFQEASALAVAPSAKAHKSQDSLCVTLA
# Cytochrome P450 2C9, sequence (P11712 whole entry): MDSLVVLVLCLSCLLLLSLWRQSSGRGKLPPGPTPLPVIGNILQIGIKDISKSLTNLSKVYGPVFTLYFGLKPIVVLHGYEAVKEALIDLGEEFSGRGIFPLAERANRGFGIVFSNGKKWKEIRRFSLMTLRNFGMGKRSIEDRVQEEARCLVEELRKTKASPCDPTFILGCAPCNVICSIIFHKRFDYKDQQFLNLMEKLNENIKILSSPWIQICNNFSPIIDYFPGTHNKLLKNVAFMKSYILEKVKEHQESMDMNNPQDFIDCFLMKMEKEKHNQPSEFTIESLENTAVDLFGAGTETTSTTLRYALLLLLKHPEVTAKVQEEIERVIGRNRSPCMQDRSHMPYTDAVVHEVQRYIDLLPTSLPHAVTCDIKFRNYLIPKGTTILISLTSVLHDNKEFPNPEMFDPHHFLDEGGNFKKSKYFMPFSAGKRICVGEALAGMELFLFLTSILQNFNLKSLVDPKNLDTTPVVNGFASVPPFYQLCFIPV
smiles,measurement,setting,value
CCCCCCN1C=CC=C/C1=C/C=C(C#N)C#N,IC50,[1],45.9 µM (not active)
same,IC50,Insulin-degrading enzyme,> 6.22 µM (active)
same,EC50,cells [2],> 350 µM (not active)
same,EC50,cells [3],> 350 µM (not active)
CCc1nnc(S)n1/N=C/c1c(O)ccc2ccccc12,IC50,[4],> 100 µM (inactive)
same,IC50,[5],4 µM (active)
CN(C)/C=C/C(=O)c1ccc(N2CCN(c3ncc(C(F)(F)F)cc3Cl)CC2)cc1,IC50,[6],0.53 µM (active)
same,AC50,[7],4.29 µM (active)
NNc1nc2c(-c3ccc(F)cc3)nnn2c2ccccc12,EC50,[8],> 79.4 µM (not active)
same,EC50,[9],> 79.4 µM (not active)
same,EC50,[10],> 79.4 µM (not active)
CCn1c(SCC(=O)O)nnc1C1CCCCC1,EC50,[8],> 79.4 µM (not active)
same,EC50,[9],> 79.4 µM (not active)
same,EC50,[10],> 79.4 µM (not active)
COc1ccc(NC(=O)CN2CCN(S(=O)(=O)c3ccc(C(C)C)cc3)CC2)cc1OC,EC50,[11],> 10 µM (not active)
CC(NS(=O)(=O)OCC(Cl)(Cl)Cl)c1ccc(C(C)(C)C)cc1 (stereo not drawn),EC50,Streptococcus,12.8 µM (active)
same,EC50,Streptokinase A,4.06 µM (active)
same,AC50,[12],2.77 µM (active)
same,IC50,[6],1.46 µM (active)
same,EC50,[13],4.61 µM (active)
O=C(/C=C/c1ccc([N+](=O)[O-])cc1)c1cccs1,CC50,[14],20.9 µM (active)
Cc1cccnc1NC(=O)c1c(O)c2cccc3c2n(c1=O)CCC3,CC50,[14],> 40 µM (active)
CC(C)(C)C1CCC2(CC1)C(C#N)=C(SCC(=O)Nc1ccccc1)NC(=O)C2C#N (stereo not drawn),EC50,Streptococcus,25.2 µM (active)
same,EC50,Streptokinase A,11.5 µM (active)
same,EC50,[15],5.05 µM (active)
same,EC50,[13],4.96 µM (active)
same,EC50,[16],4.26 µM (active)
O=C(Nc1ccccc1-c1ccccc1)C12CC3CC(CC(C3)C1)C2,CC50,[14],> 40 µM (active)
Cc1ccc(S(=O)(=O)NCc2ccc3c(c2)OCO3)cc1C,AC50,[17],70.4 µM (active)
Cn1c(/C(C#N)=C(\O)c2ccc(S(=O)(=O)N3CCCCC3)cc2)nc2ccccc21,AC50,Cytochrome P450 2C19,10 µM (inconclusive)
same,EC50,[11],> 50 µM (not active)
same,AC50,Cytochrome P450 2C9,0.316 µM (inconclusive)
CCCCSc1nnc([C@H](C)NC(=O)OC(C)(C)C)o1,EC50,[8],> 79.4 µM (not active)
same,EC50,[9],> 79.4 µM (not active)
same,EC50,[10],> 79.4 µM (not active)
Oc1ccc(F)cc1-c1cc(-c2ccc3c(c2)OCCO3)[nH]n1,AC50,[17],> 100 µM (inactive)
same,EC50,[18],46.6 µM (active)
same,EC50,[19],25.9 µM (active)
O=C(c1cc(COc2ccc(F)cc2Cl)on1)N1CCC(OCc2cccnc2)CC1,IC50,[20],> 100 µM (active)
CCc1c(C#N)c(N)nc(SCC(=O)OCc2ccccc2)c1C#N,IC50,[20],> 100 µM (active)
Cc1cc(C)cc(Nc2cnn(C34CC5CC(CC(CC(=O)O)(C5)C3)C4)c(=O)c2Cl)c1,IC50,[1],0.0039 µM (active)
same,IC50,Insulin-degrading enzyme,21.5 µM (not active)
CCCOC(=O)c1ccc(Oc2c[nH]nc2-c2ccc(OC)cc2O)cc1,EC50,Streptococcus,10.3 µM (active)
same,EC50,[15],8.49 µM (active)
same,EC50,[13],8.73 µM (active)
same,AC50,[7],7.97 µM (active)
same,EC50,[16],6.14 µM (active)
CCN1C(=O)/C(=C/C=C2/CCCN2C)OC1=S,IC50,[1],> 55.7 µM (not active)
same,IC50,Insulin-degrading enzyme,30.7 µM (not active)
O=C(COc1ccc2c(c1)OCO2)Nc1ccc2c(c1)oc1ccccc12,IC50,[20],> 100 µM (active)
same,EC50,Melanocortin receptor 4,> 89.2 µM (inactive)
CCC(C)NS(=O)(=O)c1ccc(OC)c(Cl)c1Cl (stereo not drawn),AC50,[17],10 µM (active)
Cc1nonc1NC(=O)CSc1nc2cc(Cl)ccc2c2c1CCCC2,EC50,[11],> 10 µM (not active)
